Source: US20250122191A1, “COMPOUNDS AS BCL-2 INHIBITORS” (Fochon Biosciences, Ltd, priority 2021, published 2025)
Each block holds one compound with its values, some of them ahead of it.

How the values were obtained:
[1] = tested on: RS4;11-BCL-2 F104L cells; experiment: Cell proliferation assay (MTS), RS4;11-BCL-2 F104L engineered cells; assay type: cell-based; details: Homo sapiens, 120 h, read-out: RS4, 11 BCL2-F104L IC50
Method in brief: (§1)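 Cells were plated, allowed to settle 4 h (G101V, F104L) or 24 h (D103E, D103Y), and treated with serially diluted compound (10000 down to 1.5 nM). After 120 h or 72 h respectively at 37 °C, MTS was added for 2 h and absorbance at 490 nm gave IC50 values.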

[2] = tested on: RS4;11-BCL-2 D103E cells; experiment: Cell proliferation assay (MTS), RS4;11-BCL-2 D103E engineered cells; assay type: cell-based; details: Homo sapiens, 72 h, read-out: RS4, 11 BCL2-D103E IC50
Method in brief: as §1

[3] = tested on: RS4;11-BCL-2 G101V cells; experiment: Cell proliferation assay (MTS), RS4;11-BCL-2 G101V engineered cells; assay type: cell-based; details: Homo sapiens, 120 h, read-out: RS4, 11 BCL2-G101V IC50
Method in brief: as §1

[4] = tested on: Toledo cells; experiment: Cell proliferation assay (MTS), Toledo cells; assay type: cell-based; details: Homo sapiens, 72 h
Method in brief: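 Toledo cells (RPMI-1640, 10% FBS) seeded at 30000 cells/well, rested 4 h, then exposed 72 h at 37 °C, 5% CO2 to compound at nine final concentrations, 1.5–10000 nM. Viability by MTS (2 h), absorbance at 490 nm. IC50 from the concentration-response.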

[5] = Pharmacokinetics assay in rats; assay type: in vivo; details: male Sprague-Dawley rats, po, 5 mg/kg, plasma; for AUC(0-t) / half-life / Cmax: rat; for Cmax: read-out: Cmax/C0
Description: The purpose of this study was to determine the pharmacokinetics of Examples in male Sprague-Dawley rats (Supplied by Beijing Vital River Laboratory Animal Technology Co., Ltd.) following a single intravenous bolus injection at 1 mg/kg and oral gavage (PO) administration at 5 mg/kg.
Animals in Group 1 were administered with Examples by single intravenous bolus injection at 1 mg/kg, which was formulated in 10% DMSO (Sigma, Batch #LPCOS181): 60% PEG400 (Sigma, Batch #MKCH6281): 30% water, pH 5-6 at 1 mg/mL as a solution. Animals in Group 2 were administered with Examples by single oral gavage (PO) administration at 5 mg/kg, which was formulated in 10% DMSO (Sigma, Batch #BCCD6641): 60% PEG400 (Sigma, Batch #MKCL4921): 30% water at 1 mg/mL as a solution. Blood samples were collected at 0.083, 0.25, 0.5, 1, 2, 4, 8, 12 and 24 hours post-dose. Concentrations of Examples in plasma were determined by LC/MS/MS (LC: Waters UPLC; MS: Triple Quad 6500 plus).

SMILES: COc1ccc(CN2CCN(C3CC4(CCN(c5ccc(C(=O)NS(=O)(=O)c6cnc(NC[C@H]7CC[C@](C)(O)CC7)c([N+](=O)[O-])c6)c(Oc6cc7c(F)c[nH]c7nc6OC)c5)CC4)C3)[C@H](c3ccccc3C(C)C)C2)cc1 [Example 1, 2-((3 fluoro-6-methoxy-1H pyrrolo[2,3-b]pyridin-5 yl)oxy)-N-((6-((((1r, 4r)-4-hydroxy-4-methylcyclohexyl)methyl)amino)-5-nitropyridin-3-yl)sulfonyl)-4-(2-((R)-2-(2-isopropylphenyl)-4-(4-methoxybenzyl)piperazin-1-yl)-7-azaspiro[3.5]nonan-7-yl)benzamide]
- IC50 [1]: 1 nM
- IC50 [2]: 2 nM
- IC50 [3]: 1 nM
- IC50 [4]: 1 nM
- AUC(0-t) [5]: 3030 ng·h/mL
- half-life [5]: 9.02 h
- Cmax [5]: 227 ng/mL

SMILES: CCOc1nc2[nH]cc(F)c2cc1Oc1cc(N2CCC3(CC2)CC(N2CCN(Cc4ccc(OC)cc4)C[C@H]2c2ccccc2C(C)C)C3)ccc1C(=O)NS(=O)(=O)c1cnc(NC[C@H]2CC[C@](C)(O)CC2)c([N+](=O)[O-])c1 [Example 2, 2-((6-ethoxy-3-fluoro-1H-pyrrolo[2,3-b]pyridin-5-yl)oxy)-N-((6-((((1r,4r)-4-hydroxy-4-methylcyclohexyl)methyl)amino)-5-nitropyridin-3-yl)sulfonyl)-4-(2-((R)-2-(2-isopropylphenyl)-4-(4-methoxybenzyl)piperazin-1-yl)-7-azaspiro[3.5]nonan-7-yl)benzamide]
- IC50 [2]: 3 nM
- IC50 [3]: 1 nM
- IC50 [4]: 1 nM
- AUC(0-t) [5]: 1920 ng·h/mL
- half-life [5]: 7.62 h
- Cmax [5]: 166 ng/mL

SMILES: COc1nc2[nH]cc(F)c2cc1Oc1cc(N2CCC3(CC2)CC(N2CCN(Cc4ccc(F)c(F)c4)C[C@H]2c2ccccc2C(C)C)C3)ccc1C(=O)NS(=O)(=O)c1cnc(NC[C@H]2CC[C@](C)(O)CC2)c([N+](=O)[O-])c1 [Example 3, 4-(2-((R)-4-(3,4-difluorobenzyl)-2-(2-isopropylphenyl)piperazin-1-yl)-7-azaspiro[3.5]nonan-7-yl)-2-((3-fluoro-6-methoxy-1H-pyrrolo[2,3-b]pyridin-5-yl)oxy)-N-((6-((((1r,4r)-4-hydroxy-4-methylcyclohexyl)methyl)amino)-5-nitropyridin-3-yl)sulfonyl)benzamide]
- IC50 [1]: 1 nM
- IC50 [3]: 1 nM
- IC50 [4]: 1 nM
- AUC(0-t) [5]: 4650 ng·h/mL
- half-life [5]: 9.21 h
- Cmax [5]: 382 ng/mL

SMILES: CCOc1nc2[nH]cc(F)c2cc1Oc1cc(N2CCC3(CC2)CC(N2CCN(Cc4ccc(F)c(F)c4)C[C@H]2c2ccccc2C(C)C)C3)ccc1C(=O)NS(=O)(=O)c1cnc(NC[C@H]2CC[C@](C)(O)CC2)c([N+](=O)[O-])c1 [Example 4, 4-(2-((R)-4-(3,4-difluorobenzyl)-2-(2-isopropylphenyl)piperazin-1-yl)-7-azaspiro[3.5]nonan-7-yl)-2-((6-ethoxy-3-fluoro-1H-pyrrolo[2,3-b]pyridin-5-yl)oxy)-N-((6-((((1r,4r)-4-hydroxy-4-methylcyclohexyl)methyl)amino)-5-nitropyridin-3-yl)sulfonyl)benzamide]
- IC50 [1]: 1 nM
- IC50 [3]: 1 nM
- IC50 [4]: 1 nM
- AUC(0-t) [5]: 1740 ng·h/mL
- half-life [5]: 9.57 h
- Cmax [5]: 176 ng/mL

SMILES: COc1cc(CN2CCN(C3CC4(CCN(c5ccc(C(=O)NS(=O)(=O)c6cnc(NC[C@H]7CC[C@](C)(O)CC7)c([N+](=O)[O-])c6)c(Oc6cc7c(F)c[nH]c7nc6OC)c5)CC4)C3)[C@H](c3ccccc3C(C)C)C2)ccc1C1CC1 [Example 5, 4-(2-((R)-4-(4-cyclopropyl-3-methoxybenzyl)-2-(2-isopropylphenyl)piperazin-1-yl)-7-azaspiro[3.5]nonan-7-yl)-2-((3-fluoro-6-methoxy-1H-pyrrolo[2,3-b]pyridin-5-yl)oxy)-N-((6-((((1r,4r)-4-hydroxy-4-methylcyclohexyl)methyl)amino)-5-nitropyridin-3-yl)sulfonyl)benzamide]
- IC50 [1]: 1 nM
- IC50 [3]: 1 nM
- IC50 [4]: 1 nM
- AUC(0-t) [5]: 2260 ng·h/mL
- half-life [5]: 24.4 h
- Cmax [5]: 37.1 ng/mL

SMILES: COc1nc2[nH]cc(F)c2cc1Oc1cc(N2CCC3(CC2)CC(N2CCN(Cc4ccc(OC)c5oc(C)cc45)C[C@H]2c2ccccc2C(C)C)C3)ccc1C(=O)NS(=O)(=O)c1cnc(NC[C@H]2CC[C@](C)(O)CC2)c([N+](=O)[O-])c1 [Example 13, 2-((3-fluoro-6-methoxy-1H-pyrrolo[2,3-b]pyridin-5-yl)oxy)-N-((6-((((1r,4r)-4-hydroxy-4-methylcyclohexyl)methyl)amino)-5-nitropyridin-3-yl)sulfonyl)-4-(2-((R)-2-(2-isopropylphenyl)-4-((7-methoxy-2-methylbenzofuran-4-yl)methyl)piperazin-1-yl)-7-azaspiro[3.5]nonan-7-yl)benzamide]
- IC50 [1]: 1 nM
- IC50 [2]: 1 nM
- IC50 [3]: 1 nM
- IC50 [4]: 1 nM
- AUC(0-t) [5]: 1890 ng·h/mL
- half-life [5]: 11.3 h
- Cmax [5]: 198 ng/mL

SMILES: COc1nc2[nH]cc(F)c2cc1Oc1cc(N2CCC3(CC2)CC(N2CCN(Cc4ccc(Cl)cc4)C[C@H]2c2ccccc2C(C)C)C3)ccc1C(=O)NS(=O)(=O)c1cnc(NC[C@H]2CC[C@](C)(O)CC2)c([N+](=O)[O-])c1 [Example 230, 4-(2-((R)-4-(4-chlorobenzyl)-2-(2-isopropylphenyl)piperazin-1-yl)-7-azaspiro[3.5]nonan-7-yl)-2-((3-fluoro-6-methoxy-1H-pyrrolo[2,3-b]pyridin-5-yl)oxy)-N-((6-((((1r,4r)-4-hydroxy-4-methylcyclohexyl)methyl)amino)-5-nitropyridin-3-yl)sulfonyl)benzamide]
- IC50 [1]: 1 nM
- IC50 [3]: 1 nM
- IC50 [4]: 1 nM
- AUC(0-t) [5]: 3750 ng·h/mL
- half-life [5]: 10.2 h
- Cmax [5]: 329 ng/mL

SMILES: COc1nc2[nH]cc(F)c2cc1Oc1cc(N2CCC3(CC2)CC(N2CCN(Cc4ccc(F)cc4)C[C@H]2c2ccccc2C(C)C)C3)ccc1C(=O)NS(=O)(=O)c1cnc(NC[C@H]2CC[C@](C)(O)CC2)c([N+](=O)[O-])c1 [Example 233, 2-((3-fluoro-6-methoxy-1H-pyrrolo[2,3-b]pyridin-5-yl)oxy)-4-(2-((R)-4-(4-fluorobenzyl)-2-(2-isopropylphenyl)piperazin-1-yl)-7-azaspiro[3.5]nonan-7-yl)-N-((6-((((1r,4r)-4-hydroxy-4-methylcyclohexyl)methyl)amino)-5-nitropyridin-3-yl)sulfonyl)benzamide]
- IC50 [1]: 1 nM
- IC50 [3]: 1 nM
- IC50 [4]: 1 nM
- AUC(0-t) [5]: 3920 ng·h/mL
- half-life [5]: 7.36 h
- Cmax [5]: 439 ng/mL

SMILES: COc1cc(CN2CCN(C3CC4(CCN(c5ccc(C(=O)NS(=O)(=O)c6cnc(NC[C@H]7CC[C@](C)(O)CC7)c([N+](=O)[O-])c6)c(Oc6cc7c(F)c[nH]c7nc6OC)c5)CC4)C3)[C@H](c3ccccc3C(C)C)C2)ccn1 [Example 242, 2-((3-fluoro-6-methoxy-1H-pyrrolo[2,3-b]pyridin-5-yl)oxy)-N-((6-((((1r,4r)-4-hydroxy-4-methylcyclohexyl)methyl)amino)-5-nitropyridin-3-yl)sulfonyl)-4-(2-((R)-2-(2-isopropylphenyl)-4-((2-methoxypyridin-4-yl)methyl)piperazin-1-yl)-7-azaspiro[3.5]nonan-7-yl)benzamide]
- IC50 [1]: 1 nM
- IC50 [2]: 1 nM
- IC50 [3]: 1 nM
- IC50 [4]: 1 nM
- AUC(0-t) [5]: 2760 ng·h/mL
- half-life [5]: 7.02 h
- Cmax [5]: 272 ng/mL

- AUClast [5]: 128 ng·h/mL
- Cmax/C0 [5]: 49.9 ng/mL
- T1/2 [5]: 1.16 h
SMILES: CC(C)c1ccccc1[C@@H]1CN(C)CCN1C1CC2(CCN(c3ccc(C(=O)NS(=O)(=O)c4cnc(NCC5CCC(C)(O)CC5)c([N+](=O)[O-])c4)c(Oc4cnc5[nH]ccc5c4)c3)CC2)C1 (stereo partly drawn) [Reference Compound 1, (R)-2-((1H-pyrrolo[2,3-b]pyridin-5-yl)oxy)-N-((6-(((4-hydroxy-4-methylcyclohexyl)methyl)amino)-S-nitropyridin-3-yl)sulfonyl)-4-(2-(2-(2-isopropylphenyl)-4-methylpiperazin-1-yl)-7-azaspiro[3.5]nonan-7-yl)benzamide, reference compound]
